In one data set the test system is rgRSV224 virus. As to the kind of experiment: Antiviral activity: rgRSV224 (GFP-expressing RSV) replication in HeLa cells, GFP expression measured three days post-virus exposure. Particulars: human respiratory syncytial virus, 72 h, read-out: WT activity pEC50 (converted). The class given is cell-based.
A short description of a further data set: in vitro. Particulars: human. The class given is cell-based.

The source of these data is US9845321B2, “1,3-dihydro-2H-benzimidazol-2-one derivatives substituted with heterocycles as respiratory syncytial virus antiviral agents” (JANSSEN SCIENCES IRELAND UC, priority 2012, dated 2017).

Structures are written as SMILES. Where only a bound is given, the exact number is not on record here.

What is called CC50 is the concentration at which the toxic effect on the cells reaches its halfway point. Broadly, the melting point is the temperature of the solid-liquid transition. The compound `O=c1n(Cc2cc3cc(Cl)ccc3n2CCCCF)c2cnccc2n1-c1ccc(Cl)cc1` [Compound P34, 3-((5-chloro-1-(4-fluorobutyl)-1H-indol-2-yl)methyl)-1-(4-chlorophenyl)-1H-imidazo[4,5-c]pyridin-2(3H)-one] yielded a melting point of 168 °C. Further, the EC50 with rgRSV224 virus was 31.6 nM. In the data set “in vitro”, this compound gave a CC50 at 3 days greater than 100000 nM.

As for `COc1ccc(-n2c(=O)n(Cc3cc4cc(Cl)ccc4n3CCCS(C)(=O)=O)c3cnccc32)cc1` [Compound P35, 3-((5-chloro-1-(3-(methylsulfonyl)propyl)-1H-indol-2-yl)methyl)-1-(4-methoxyphenyl)-1H-imidazo[4,5-c]pyridin-2(3H)-one], the melting point is 215 °C. Further, the EC50 in the data set on rgRSV224 virus is 0.316 nM. Further, in “in vitro”, the CC50 at 3 days is 31600 nM.

`Cn1ccc(-n2c(=O)n(Cc3cc4cc(Cl)ccc4n3CCCC#N)c3cnccc32)n1` [Compound P36, 4-(5-chloro-2-((1-(1-methyl-1H-pyrazol-3-yl)-2-oxo-1H-imidazo[4,5-c]pyridin-3(2H)-yl)methyl)-1H-indol-1-yl)butanenitrile] gave a melting point of 244 °C. For the same compound, the EC50 in the data set on rgRSV224 virus was 1.58 nM. For the same compound, the CC50 at 3 days in the data set “in vitro” was 63100 nM.

In turn, `N#CCCCn1c(Cn2c(=O)n(-c3ncco3)c3ccncc32)cc2cc(Cl)ccc21` [Compound P37, 4-(5-chloro-2-((1-(oxazol-2-yl)-2-oxo-1H-imidazo[4,5-c]pyridin-3(2H)-yl)methyl)-1H-indol-1-yl)butanenitrile] yielded a melting point of 234 °C. For the same compound, in the data set on rgRSV224 virus, the EC50 was 1.58 nM. Also, the CC50 at 3 days in the data set “in vitro” was greater than 100000 nM.

Consider `Cn1ccc(-n2c(=O)n(Cc3cc4cc(Cl)ccc4n3CCCCF)c3cnccc32)n1` [Compound P38, 3-((5-chloro-1-(4-fluorobutyl)-1H-indol-2-yl)methyl)-1-(1-methyl-1H-pyrazol-3-yl)-1H-imidazo[4,5-c]pyridin-2(3H)-one], for which the melting point came to 169.3 °C. The EC50 with rgRSV224 virus is 1.58 nM. The compound further showed a CC50 at 3 days in “in vitro” greater than 100000 nM.

Turning to `N#CCCCn1c(Cn2c(=O)n(-c3ccc(Cl)cc3)c3ccncc32)cc2cc(Cl)ccc21` [Compound P39, 4-(5-chloro-2-((1-(4-chlorophenyl)-2-oxo-1H-imidazo[4,5-c]pyridin-3(2H)-yl)methyl)-1H-indol-1-yl)butanenitrile], the melting point is 210.8 °C. In the data set on rgRSV224 virus, the EC50 is 3.98 nM. Further, the CC50 at 3 days in the data set “in vitro” was 25100 nM.
